Literature values as cited in patent US20080045604A1, “COMPOSITION AND METHOD FOR FACILITATING THE HEALING OF NON-HEALING AND SLOW-HEALING WOUNDS AND ULCERATIONS” (priority 2004, published 2008).

Columns and labels:
[1] = system: pathogenic molds and dermatophytes; conditions: reported medicinal properties
Neisseria gonorrhoeae = conditions: Biological Chemistry 2005
Lemma minor = conditions: Fitoterapia 2005

COc1cc(/C=C/C(=O)CC(=O)/C=C/c2ccc(O)c(OC)c2)ccc1O [Curcumin, (1E,6E)-1,7-bis(4-hydroxy-3-methoxyphenyl)-1,6-heptadiene-3,5-dione]
antifungal activity / inhibition of pathogenic molds and dermatophytes [1]: no antifungal activity | adherence of bacteria to cells in infection (Neisseria gonorrhoeae): abolished the adherence of bacteria to cells | phytotoxic against Lemma minor (Lemma minor): 100%
